Results reported in patent US10172378B2, “Mono- or bicyclic carboxylic acids as off-note blockers” (Givaudan, S.A., priority 2007, dated 2019).
pIC50: −log10 of the molar value. Like-named read-outs stand apart in the source and are kept apart here.

Target: T1, human TAS2R44 bitter taste receptor (Homo sapiens, UniProt P59538, L162M)
T1 construct: The TAS2R44 construct contains RSS tag, TAS2R44, and the HSV tag which are fused in frame; expressed in transfected cells; host or cells: HEK293T cells stably expressing Galpha16-gustducin44
T1 sequence (P59538 with tags, fused parts or gaps L162M): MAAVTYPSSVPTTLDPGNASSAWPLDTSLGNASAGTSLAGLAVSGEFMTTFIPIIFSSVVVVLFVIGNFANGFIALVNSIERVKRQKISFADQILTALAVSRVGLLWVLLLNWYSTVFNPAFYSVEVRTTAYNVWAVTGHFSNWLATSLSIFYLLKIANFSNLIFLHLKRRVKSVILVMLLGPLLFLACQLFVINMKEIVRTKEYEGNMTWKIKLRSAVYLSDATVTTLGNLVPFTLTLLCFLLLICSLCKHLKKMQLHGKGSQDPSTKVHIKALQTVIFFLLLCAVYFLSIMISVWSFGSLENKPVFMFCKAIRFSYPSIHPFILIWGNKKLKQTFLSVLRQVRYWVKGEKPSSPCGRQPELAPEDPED
Test: TAS2R44 bitter taste receptor Fluo-4 calcium assay for IC50 determination
Type: cell-based
Details: for IC50: Acesulfame K (0.8 mM) as agonist, same range as example 3
Method: A taste receptor screen and concentration-response analysis was performed and from results inhibitory concentration (IC) IC50 values can be calculated by nonlinear regression using the function f(x)=(a−d)/(1+(x/C)^nh)+d; with a=minimum signal, d=maximum signal, nh=hill coefficient, C=IC50 and x=concentration of antagonist. IC50 is the molar concentration of an antagonist which produces 50% of the maximum possible inhibitory response for that antagonist.
TAS2R44 Bitter Taste Receptor Assay for IC 50 Determination
The full length gene of human TAS2R44 was amplified by polymerase chain reaction (PCR) using gene-specific primers that span the entire coding region as described in WO 2004/029087.
The TAS2R44 cDNA was subcloned into an expression cassette based on either of the following plasmids/expression vectors: pcDNA3.1Zeo (Invitrogen). These vectors contain within their multiple cloning sites the nucleotide sequence coding for the first 45 amino acids of the rat somatostatin receptor subtype 3 (RSS tag) to facilitate cell surface targeting of the transgene (SEQ ID #4) and the nucleotide sequence coding for the herpes simplex virus (HSV) glycoprotein D epitope (HSV epitope in aminoterminal to carboxyterminal direction, HSV tag). (SEQ ID #3) for facilitating immunocytochemical detection.
The TAS2R44 construct contains RSS tag, TAS2R44, and the HSV tag which are fused in frame to allow translation into the receptor protein and the resulting receptor cDNA.
This transfected expression vector is called pcDNA3.1Zeo-TAS2R44 (SEQ ID #1) and allows for expression of the TAS2R44 protein (SEQ ID #2).
A cell line that stably expresses the human bitter taste receptor (TAS2R44) was generated by transfecting pcDNA3.1Zeo-TAS2R44 into HEK293T/Gα16-gustducin 44 cells (both formed as described in under 1) above). The host cell line HEK-293T is commercially available from the American […] (catalog #CRL-1573).
On day 0, the HEK293T Gα16-gustducin44 cells were seeded in a 6-well plate at a density of 900,000 cells per well and grown over night in selective growth medium (DMEM with 10% (v/v) heat-inactivated fetal bovine serum, 2 mM L-glutamine, 100 units/ml penicillin, 100 μg/ml streptomycin, 200 μg/ml G418 and 200 μg/ml zeocin). On day 1, the medium was exchanged with 2 ml of antibiotic-free and serum-free growth medium. 10 μl Lipofectamine 2000 was dissolved in 250 μl DMEM and incubated for 5 minutes at room temperature. In parallel, 4 μg TAS2R44 vector DNA were dissolved in 250 μl DMEM. These two resulting solutions are mixed and incubated for 20 minutes at room temperature before they are added to the cells into the cell culture medium. After 4 hours, the medium is replaced with antibiotic-free, serum-containing growth medium.
Fluo-4_AM (Invitrogen) is a fluorescent indicator of intracellular calcium dynamics (change in concentration) and allows monitoring changes in the calcium concentration, particularly an increase in response to receptor activation occurring after agonist exposure.
At day 0, the HEK293T cell line stably expressing Gα16-gustducin44 and TAS2R44 formed as described under 2) was seeded in antibiotic-free growth medium (standard DMEM with 10% (v/v) heat-inactivated fetal bovine serum, 2 mM L-glutamine […]) into black wall/clear bottom 96-well plates, coated with poly(ethylenimine) (0.005% v/v) at a concentration of 15,000 cells per well and incubated for 48 hours in humidified atmosphere (37° C., 5% CO2).
At the time of the assay, the growth medium was discarded and the cells were further incubated in a humidified atmosphere (37° C., 5% CO2) for 1 hour with 50 μl of loading buffer consisting of 1.5 μM Fluo-4 AM and […] (Sigma-Aldrich) in DMEM. […]

[1] = agonist not stated, read-out: IC50 when tested with the TAS2R44 bitter taste receptor
[2] = saccharin (0.5 mM) as agonist, HEK293T cells expressing Gα16-gustducin44 and TAS2R44, read-out: IC50

pIC50 [1] | IC50 | pIC50 [2] | SMILES
4.70 to 7.00 | – | – | CC(C)CCC[C@H]1CC[C@@H](C(=O)O)CC1 [cis-4-(4-methylpentyl)cyclohexanecarboxylic acid]
4.70 to 7.00 | – | – | O=C(O)[C@H]1CC[C@@H](Cc2ccccc2)CC1 [cis-4-benzylcyclohexanecarboxylic acid]
4.70 to 7.00 | – | – | CCC[C@]12CC[C@](C(=O)O)(CC1)CC2 [cis-4-propylbicyclo[2.2.2]octane-1-carboxylic acid]
4.70 to 7.00 | within the same range | 4.60 to 7.30 | CCC[C@H]1CC[C@@H](C(=O)O)CC1 [cis-4-propylcyclohexanecarboxylic acid]
4.70 to 7.00 | – | – | CCC(C)[C@H]1CC[C@@H](C(=O)O)CC1 (stereo partly drawn) [cis-4-sec-butylcyclohexanecarboxylic acid]
4.70 to 7.00 | within the same range | 4.60 to 7.30 | CC(C)(C)[C@H]1CC[C@@H](C(=O)O)CC1 [cis-4-tert-butylcyclohexanecarboxylic acid]

SMILES | pIC50 [1] | IC50 | pIC50 [2]
O=C(O)[C@H]1CC[C@@H](c2ccccc2)CC1 [cis-4-phenylcyclohexanecarboxylic acid] | 4.70 to 7.00 | – | –
